Test results from patent US20190209506A1, “METHODS OF REDUCING OR PREVENTING OXIDATION OF LDL OR LIPID MEMBRANES IN A SUBJECT IN NEED THEREOF” (Amarin Pharmaceuticals Ireland Limited, priority 2018, published 2019).
“And” between values parts separate entries of the source, which are not always exact repeats. Equal entries are not always repeated.

Experiments:
[1] = Lipid hydroperoxide (LOOH) formation in cholesterol-enriched model membranes under autoxidation (Example 3); assay type: biochemical; settings: EPA:lipids 1:30; C/P 0.6:1; autoxidation 37° C., 72 hours
Description: Levels of lipid hydroperoxides were also measured in cholesterol-enriched membrane prepared in the absence of EPA as a control. […] CHOD-iodide color reagent (stock) was prepared according to a procedure modified from El-Saadani et […], Goher […], Jurgens G. A spectrophotometric assay for lipid peroxides in serum lipoproteins using commercially available reagent. (J. Lipid. […] Membrane samples consisting of DLPC±cholesterol were prepared as follows. Component lipids (in chloroform) were transferred to 13×100 mm test tubes and shell-dried under a steady stream of nitrogen gas while vortex mixing. The lipid was co-dried with EPA. Residual solvent was removed by drying for a minimum of 3 h under vacuum. After desiccation, each membrane sample was resuspended in diffraction buffer (0.5 mM HEPES, 154 mM NaCl, pH 7.3) to yield a final phospholipid concentration of 1.0 mg/mL. Multilamellar vesicles (MLV) were formed by vortex mixing for 3 minutes at ambient temperature. […] Absorbances were measured against a CHOD blank at 365 nm using a Beckman DU-640 spectrophotometer. The CHOD colorimetric assay is based on the oxidation of iodide (I^-) by lipid hydroperoxides (LOOH) and proceeds according to the following reaction scheme: The quantity of triiodide anion (I3^-) liberated in this reaction is directly proportional to the amount of lipid hydroperoxides present in the membrane sample.

[2] = Glucose- and peroxidation-induced cholesterol domain formation, small angle x-ray diffraction (Example 4); settings: 1:30 drug-to-phospholipid, glucose 200 mg/dL
Description: Samples were shell-dried under nitrogen gas and placed under vacuum for 1 h to remove residual solvent. […] Lipid suspensions were then vortexed for 3 min at ambient temperature to form MLVs. […] Membrane lipid vesicles were oriented for x-ray diffraction analysis as described by others (e.g., Herbette et al., Biophys. […] Briefly, a 100 μL aliquot (containing 250 μg MLV) was aspirated from each sample and transferred to a Lucite® sedimentation cell fitted with an aluminum foil substrate upon which a given sample could be collected by centrifugation. Samples were then loaded into a Sorvall AH-629 swinging bucket rotor (DuPont Corp., Wilmington, Del.) and centrifuged at 35,000 g, 5° C., for 90 min. After centrifugal orientation, sample supernatants were aspirated and aluminum foil substrates, each supporting a single membrane pellet, were removed from the sedimentation cells. […] The d-space for any given membrane multibilayer is a measurement of the unit cell periodicity of the membrane lipid bilayer (e.g., the distance from the center of one lipid bilayer to the next including surface hydration), and is calculated from Bragg's Law, […], where h is the diffraction order, λ is the wavelength of the x-ray radiation (1.54 Å), d is the membrane lipid bilayer unit cell periodicity, and θ is the Bragg angle equal to one-half the angle between the incident beam and scattered beam. […]

human sdLDL = test: Copper-induced sdLDL oxidation, TBARS (Example 7); assay type: biochemical
Description: An experiment to study the antioxidant effect of EPA in LDL and small dense LDL (“sdLDL”) was performed. LDL and sdLDL were isolated from the plasma of healthy volunteers by iodixanol density gradient ultracentrifugation, and adjusted to a final apolipoprotein concentration of 2 mg/mL. […] Lipid oxidation was initiated with 10 μM CuSO4 and monitored by the colorimetric detection of thiobarbituric acid reactive substances (TBARS) for 1 hr. Vitamin E was also incubated with sample aliquots as a positive control.

Row | Compound | LOOH levels [1] [µM] | reduction of LOOH levels compared to untreated controls [1] | inhibition of relative cholesterol domain peak intensity ([2]; 96-hour time point, vs vehicle or vitamin E) | inhibition of sdLDL oxidation (human sdLDL; 1.0 μM, 1 hr, vs vehicle) [%] | inhibition of TBARS formation / sdLDL oxidation (human sdLDL; 10 μM, 1 hr, vs vehicle, 10 µM) | effect on sdLDL oxidation compared to vehicle or DHA (human sdLDL; 10.0 μM, after 4 hours) | IC50 (human sdLDL; 1 hr) [µM] | effect on cholesterol domain formation compared to control ([2]; any experimental time point) | effect on sdLDL oxidation compared to vehicle-treated controls (human sdLDL; 10 μM, 1 hour)
1 | CC/C=C\C/C=C\C/C=C\C/C=C\C/C=C\CCCC(=O)O [EPA, cis-5,8,11,14,17-eicosapentaenoic acid] | 728 ± 30 | greater than 90% | more than 99% | 19±8 | 93±2% and 92±8% | significantly inhibited sdLDL oxidation | ~2 |  | 
2 | Cc1c(C)c2c(c(C)c1O)CC[C@@](C)(CCC[C@H](C)CCC[C@H](C)CCCC(C)C)O2 [vitamin E, α-tocopherol, reference compound] |  |  |  |  |  |  |  | no significant effect on cholesterol domain formation | no significant effect on sdLDL oxidation
